The target of this experiment is APJ receptor (Homo sapiens (Human), UniProt P35414). Put plainly: [35S]GTPγS binding assay on membranes from CHO cells stably expressing human APJ receptor. The experiment is classed as biochemical. The settings on record: membranes of CHO cells stably expressing human APJ receptor, means of several independent experiments, read-out: Activity hAPJ SPA EC50 IP. Put shortly: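 EC50 values were obtained by non-linear regression of [35S]GTPγS (0.2 nM) binding after 90 min at RT, with nonspecific binding defined by 100 μM GTPγS. Reactions used human APJ–expressing CHO cell membranes on WGA PS beads in HEPES pH 7.5 buffer with 5 mM MgCl2, 200 mM NaCl, 3 μM GDP and 0.1% BSA.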
Sequence of APJ receptor (P35414 whole entry): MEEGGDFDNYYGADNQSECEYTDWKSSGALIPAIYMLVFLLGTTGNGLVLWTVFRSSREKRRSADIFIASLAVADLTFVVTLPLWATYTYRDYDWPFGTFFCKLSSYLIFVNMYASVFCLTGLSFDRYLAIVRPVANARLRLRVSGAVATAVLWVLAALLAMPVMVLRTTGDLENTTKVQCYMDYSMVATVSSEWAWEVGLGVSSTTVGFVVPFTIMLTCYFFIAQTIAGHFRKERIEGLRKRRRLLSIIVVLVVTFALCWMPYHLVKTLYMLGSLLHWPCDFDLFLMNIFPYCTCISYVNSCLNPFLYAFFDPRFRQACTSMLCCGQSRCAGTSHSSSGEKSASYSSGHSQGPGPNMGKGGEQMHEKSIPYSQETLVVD

For `COCC[C@@H]([C@H](C)c1ncc(F)cn1)S(=O)(=O)Nc1nnc(-c2ccc(C)o2)n1-c1c(OC)cccc1OC` (racemic) [Example 74.0], the EC50 (commonly the concentration that produces a half-maximal response) worked out at 0.54 nM.

Regarding `COc1cccc(OC)c1-n1c(NS(=O)(=O)[C@H]2CC[C@H]3CCCC(=O)N3C2)nnc1-c1ccc(C)o1` (single isomer, unassigned) [Example 173.0], the EC50 is 1.6 nM. Then `COc1ncnc(OC)c1-n1c(NS(=O)(=O)[C@@H](C)[C@H](C)c2ncc(Cl)cn2)nnc1-c1ccc(C)o1` [Example 383.0, (2S,3R)-3-(5-Chloropyrimidin-2-yl)-N-(4-(4,6-dimethoxypyrimidin-5-yl)-5-(5-methylfuran-2-yl)-4H-1,2,4-triazol-3-yl)butane-2-sulfonamide], with 0.06 nM. Then `COc1cccc(OC)c1-n1c(NS(=O)(=O)[C@H](C)Cc2ccc(C#N)cn2)nnc1-c1ccc(C)o1` (single isomer, unassigned) [Example 12.0, (2R)-1-(5-cyano-2-pyridinyl)-N-(4-(2,6-dimethoxyphenyl)-5-(5-methyl-2-furanyl)-4H-1,2,4-triazol-3-yl)-2-propanesulfonamide or (2S)-1-(5-cyano-2-pyridinyl)-N-(4-(2,6-dimethoxyphenyl)-5-(5-methyl-2-furanyl)-4H-1,2,4-triazol-3-yl)-2-propanesulfonamide], with 0.15 nM. Then `COc1cccc(OC)c1-n1c(NS(=O)(=O)c2cccc([C@@H](C)O)c2)nnc1-c1ccc(C)o1` (single isomer, unassigned) [Example 411.0, (R)-N-(4-(2,6-dimethoxyphenyl)-5-(5-methylfuran-2-yl)-4H-1,2,4-triazol-3-yl)-3-(1-hydroxyethyl)benzenesulfonamide or (S)-N-(4-(2,6-dimethoxyphenyl)-5-(5-methylfuran-2-yl)-4H-1,2,4-triazol-3-yl)-3-(1-hydroxyethyl)benzenesulfonamide], with 32 nM; and `COc1cccc(OC)c1-n1c(NS(=O)(=O)C[C@@](C)(F)c2ncc(C#N)cn2)nnc1-c1ccc(C)o1` (single isomer, unassigned) [Example 231.0, (2S)-2-(5-Cyano-2-pyrimidinyl)-N-(4-(2,6-dimethoxyphenyl)-5-(5-methyl-2-furanyl)-4H-1,2,4-triazol-3-yl)-2-fluoro-1-propanesulfonamide or (2R)-2-(5-cyano-2-pyrimidinyl)-N-(4-(2,6-dimethoxyphenyl)-5-(5-methyl-2-furanyl)-4H-1,2,4-triazol-3-yl)-2-fluoro-1-propanesulfonamide], with 0.44 nM. In the case of `COc1cccc(OC)c1-n1c(NS(=O)(=O)[C@@H](C)[C@@H](C)c2ncc(F)cn2)nnc1-c1ccco1` (racemic) [Example 218.0, (2R,3R)—N-(4-(2,6-dimethoxyphenyl)-5-(2-furanyl)-4H-1,2,4-triazol-3-yl)-3-(5-fluoro-2-pyrimidinyl)-2-butanesulfonamide and (2S,3S)—N-(4-(2,6-dimethoxyphenyl)-5-(2-furanyl)-4H-1,2,4-triazol-3-yl)-3-(5-fluoro-2-pyrimidinyl)-2-butanesulfonamide], the 50% effective concentration (EC50) is 0.25 nM.

Regarding `COc1cccc(OC)c1-n1c(NS(=O)(=O)[C@@H](C)[C@H](O)c2ccc(C#N)cn2)nnc1-c1ccc(C)o1` (single isomer, unassigned) [Example 40.0, (1R,2S)-1-(5-cyano-2-pyridinyl)-N-(4-(2,6-dimethoxyphenyl)-5-(5-methyl-2-furanyl)-4H-1,2,4-triazol-3-yl)-1-hydroxy-2-propanesulfonamide or (1S,2R)-1-(5-cyano-2-pyridinyl)-N-(4-(2,6-dimethoxyphenyl)-5-(5-methyl-2-furanyl)-4H-1,2,4-triazol-3-yl)-1-hydroxy-2-propanesulfonamide], the concentration for a half-maximal effect (EC50) came out at 11 nM. In the case of `COc1cccc(OC)c1-n1c(NS(=O)(=O)[C@@H](C)[C@@H](O)c2coc(C)n2)nnc1-c1ccc(C)o1` (single isomer, unassigned) [Example 55.0, (1S,2S)—N-(4-(2,6-dimethoxyphenyl)-5-(5-methyl-2-furanyl)-4H-1,2,4-triazol-3-yl)-1-hydroxy-1-(2-methyl-1,3-oxazol-4-yl)-2-propanesulfonamide or (1R,2R)—N-(4-(2,6-dimethoxyphenyl)-5-(5-methyl-2-furanyl)-4H-1,2,4-triazol-3-yl)-1-hydroxy-1-(2-methyl-1,3-oxazol-4-yl)-2-propanesulfonamide], the 50% effective concentration (EC50) worked out at 28 nM. As for `COc1cccc(OC)c1-n1c(NS(=O)(=O)[C@H]2C[C@@H](O)CN(c3ncc(F)cc3C#N)C2)nnc1-c1ccc(C)o1` (mixture of isomers) [Example 330.0, (3S,5R)-1-(3-Cyano-5-fluoro-2-pyridinyl)-N-(4-(2,6-dimethoxyphenyl)-5-(5-methyl-2-furanyl)-4H-1,2,4-triazol-3-yl)-5-hydroxy-3-piperidinesulfonamide and (3R,5S)-1-(3-cyano-5-fluoro-2-pyridinyl)-N-(4-(2,6-dimethoxyphenyl)-5-(5-methyl-2-furanyl)-4H-1,2,4-triazol-3-yl)-5-hydroxy-3-piperidinesulfonamide], the figure is 0.43 nM; as for “(1R,2R)-N-(4-(2,6-dimethoxyphenyl)-5-(5-methyl-2-furanyl)-4H-1,2,4-triazol-3-yl)-1-methoxy-1-(5-methyl-2-pyrimidinyl)-2-propanesulfonamide or (1S,2S)-N-(4-(2,6-dimethoxyphenyl)-5-(5-methyl-2-furanyl)-4H-1,2,4-triazol-3-yl)-1-methoxy-1-(5-methyl-2-pyrimidinyl)-2-propanesulfonamide [Example 226.0]”, 0.35 nM; as for `COc1cccc(OC)c1-n1c(NS(=O)(=O)CCN2C(=O)[C@@H](C)C[C@]2(C)C#N)nnc1-c1ccco1` (single isomer, unassigned) [Example 168.0], 0.97 nM. With `COc1cccc(OC)c1-n1c(NS(=O)(=O)[C@H]2CCCN(c3ncc(F)cn3)C2)nnc1-c1ccco1` [Example 206.0, (3S)—N-(4-(2,6-Dimethoxyphenyl)-5-(2-furanyl)-4H-1,2,4-triazol-3-yl)-1-(5-fluoro-2-pyrimidinyl)-3-piperidinesulfonamide], the half-maximal effective concentration (EC50) was 4.8 nM. As to `Cc1ccc(-c2nnc(NS(=O)(=O)[C@@H](C)Cc3ncc(F)cn3)n2C2CCOCC2)o1` (racemic) [Example 317.0, (2S)-1-(5-Fluoro-2-pyrimidinyl)-N-(5-(5-methyl-2-furanyl)-4-(tetrahydro-2H-pyran-4-yl)-4H-1,2,4-triazol-3-yl)-2-propanesulfonamide and (2R)-1-(5-fluoro-2-pyrimidinyl)-N-(5-(5-methyl-2-furanyl)-4-(tetrahydro-2H-pyran-4-yl)-4H-1,2,4-triazol-3-yl)-2-propanesulfonamide], the concentration for a half-maximal effect (EC50) came out at 310 nM.

On to `COc1cccc(OC)c1-n1c(NS(=O)(=O)[C@H](C)[C@H](O)c2oc(C)nc2C)nnc1-c1ccc(C)o1` (racemic) [Example 82.0], for which the EC50 amounted to 18 nM. As for `COc1cccc(OC)c1-n1c(NS(=O)(=O)CCc2ncc(F)cn2)nnc1-c1ccc(C)o1` [Example 125.0, N-(4-(2,6-Dimethoxyphenyl)-5-(5-methylfuran-2-yl)-4H-1,2,4-triazol-3-yl)-2-(5-fluoropyrimidin-2-yl)ethanesulfonamide], the figure is 0.34 nM; as for `COc1cccc(OC)c1-n1c(NS(=O)(=O)CCc2ncc(Cl)cc2-c2ccncc2)nnc1-c1ccco1` [Example 222.0, 2-(5-chloro-3,4′-bipyridin-2-yl)-N-(4-(2,6-dimethoxyphenyl)-5-(2-furanyl)-4H-1,2,4-triazol-3-yl)ethanesulfonamide], 0.31 nM. Regarding `COc1cccc(OC)c1-n1c(NS(=O)(=O)[C@H]2C[C@@H](O)CN(c3ncc(F)cn3)C2)nnc1-c1ccco1` (single isomer, unassigned) [Example 167.0, (3S,5R)—N-(4-(2,6-Dimethoxyphenyl)-5-(2-furanyl)-4H-1,2,4-triazol-3-yl)-1-(5-fluoro-2-pyrimidinyl)-5-hydroxy-3-piperidinesulfonamide or (3R,5S)—N-(4-(2,6-dimethoxyphenyl)-5-(2-furanyl)-4H-1,2,4-triazol-3-yl)-1-(5-fluoro-2-pyrimidinyl)-5-hydroxy-3-piperidinesulfonamide], the EC50 worked out at 0.94 nM. For the molecule `COc1cccc(OC)c1-n1c(NS(=O)(=O)[C@@H](C)[C@@](C)(O)c2ccc(C#N)cn2)nnc1-c1ccc(C)o1` (single isomer, unassigned) [Example 227.0], the EC50 came to 0.35 nM. In the case of `COc1cccc(OC)c1-n1c(NS(=O)(=O)[C@H]2C[C@@H](O)CN(c3cncc(C#N)c3)C2)nnc1-c1ccc(C)o1` [Example 334.0, (3S,5R)-1-(5-Cyanopyridin-3-yl)-N-(4-(2,6-dimethoxyphenyl)-5-(5-methylfuran-2-yl)-4H-1,2,4-triazol-3-yl)-5-hydroxypiperidine-3-sulfonamide and (3S,5R)-1-(5-cyanopyridin-3-yl)-N-(4-(2,6-dimethoxyphenyl)-5-(5-methylfuran-2-yl)-4H-1,2,4-triazol-3-yl)-5-hydroxypiperidine-3-sulfonamide], the EC50 was found to be 0.47 nM. Then “(2R)-1-(3-cyano-5-fluoro-2-pyridinyl)-N-(4-(2,6-dimethoxyphenyl)-5-(2-furanyl)-4H-1,2,4-triazol-3-yl)-2-propanesulfonamide or (2S)-1-(3-cyano-5-fluoro-2-pyridinyl)-N-(4-(2,6-dimethoxyphenyl)-5-(2-furanyl)-4H-1,2,4-triazol-3-yl)-2-propanesulfonamide [Example 29.0]”, with 0.82 nM; and `COc1cccc(OC)c1-n1c(NS(=O)(=O)[C@@H](C)[C@@H](O)c2ccc(F)cn2)nnc1-c1ccc(C)o1` (single isomer, unassigned) [Example 79.0], with 0.98 nM. In the case of `COc1cccc(OC)c1-n1c(NS(=O)(=O)[C@H](C)[C@@H](O)c2ccc(C)cn2)nnc1-c1ccc(C)o1` (single isomer, unassigned) [Example 65.0], the concentration giving a half-maximal response (EC50) came out at 0.31 nM.
